Experimental data taken from patent US6893630B2, “Anti-microbial antiperspirant products” (Unilever Home & Personal Care USA, division of Conopco, Inc., priority 2000, dated 2005).
“Also recorded” adds a separate entry of the source. Like-named read-outs stand apart in the source and are kept apart here.

Key:
relevant micro-organism = conditions: cited from earlier work
[1] = test system: Staphylococcus epidermidis; experiment: Anti-microbial performance of chelators: growth inhibition in semi-synthetic medium by optical density; assay type: cell-based; conditions: for "micro-molar active" criterion (significant inhibition of growth, at least 30%, at 3×10^−6 mol.dm^−3 or less): S. epidermidis; for Inhibition of growth (%): chelator 3×10^−6 mol.dm^−3, 16 hours at 37° C., optical density at 600 nm vs control medium
Method: An axillary isolate of Staphylococcus epidermidis was grown overnight in 100 ml of tryptone soy broth (TSB, Oxoid Ltd). 10 ml of this culture was taken and subjected to centrifugation. The separated cells were re-suspended in 10 ml of phosphate buffered saline and the centrifugation procedure repeated. The washed cells were re-suspended in 10 ml of phosphate buffered saline to give the inoculum. 100 μl of the inoculum was added to 100 ml of semi-synthetic medium (SSM) containing (NH4)2SO4 (0.066 g), MgSO4.7H2O (0.012 g), KCl (0.1 g), KH2PO4 (0.27 g), Na2HPO4 (1.43 g), thiamin (0.1 mg), biotin (0.05 mg), Peptone P (0.05 g), and glucose (2.0 mmole) which had been previously sterilised by autoclaving at 121° C. for 20 minutes. The pH of the SSM was adjusted to 6.7 with HCl after sterilisation, prior to addition of the inoculum. This control medium was utilised in all of the in vitro inhibition studies. The chelator-containing test media were prepared in a similar manner, the chelator being introduced at a concentration of 3×10^−6 mol.dm^−3 before the pH adjustment with HCl.
100 μl of the S. epidermidis inoculum was introduced into the control medium and into test media containing the chelators indicated in Table 2. The cultures were inoculated at 37° C. (with agitation at 200 rpm) for 16 hours, and the optical density of the cultures measured at 600 nm to determine the extent of bacterial growth. By comparison of the optical density of the culture in the presence of chelating agent, to that of the control, the percentage inhibition of growth was established. (Optical density measurements were made on 1 in 4 dilutions of the cultures with 0.9% (w/v) saline, using 1 cm path length cuvettes, on a Pharmacia Biotech Ultrospec 200 Spectrophotometer.)

SMILES	MIC (relevant micro-organism; literature values)	"micro-molar active" criterion (significant inhibition of growth, at least 30%, at 3×10^−6 mol.dm^−3 or less) [1]	Inhibition of growth (%) [1]	MIC (relevant micro-organism; stated by contrast, no source given)
CC(C)=CCCC(C)=CCCC(C)=CCO [farnesol, 3,7,11-trimethyldodeca-2,6,10-trienol]	ca. 25 μg.ml^−1			
O=C(O)CN(CCN(CCN(CC(=O)O)CC(=O)O)CC(=O)O)CCN(CC(=O)O)CC(=O)O [TTHA, triethylenetetraaminehexaacetic acid]		capable of achieving significant inhibition; also recorded: meet the criterion	56.3%	
O=C(O)CN(CCN(CC(=O)O)CC(=O)O)CC(=O)O [EDTA, ethylenediaminetetraacetic acid]		exclude; also recorded: fail this criterion	0%	
O=C(O)CN(CCN(CC(=O)O)CC(=O)O)CCN(CC(=O)O)CC(=O)O [DTPA, diethylenetriaminepentaacetic acid]		capable of achieving significant inhibition; also recorded: meet the criterion	56.5%	
Oc1cc(Cl)ccc1Oc1ccc(Cl)cc1Cl [triclosan, 2′,4,4′-trichloro,2-hydroxy-diphenyl ether]	0.01 to 10 µg/mL			
O=C(O)CN(CC(=O)O)[C@@H]1CCCC[C@H]1N(CC(=O)O)CC(=O)O (relative stereo) [CDTA, trans-1,2-diaminocyclohexane-N,N,N′,N′-tetraacetic acid]		exclude; also recorded: fail this criterion	12.3%	
CCO [ethanol]				greater than 1 mg.ml^−1
